Experimental data taken from patent US7799770B2, “Solid body forms of mesoprogestin 11β-{4E-(hydroxyiminomethyl)-phenyl}-17α methoxymethyl-17β-methoxy-estra-4,9-dien-3-one” (Bayer Schering Pharma AG, priority 2000, dated 2010).

Assays:
Solubility in toluene = assay type: physicochemical
From the text: The production of the solvate form that is suitable for the solid final form of the oxime can be associated, according to the invention, with the separation of the Z-isomer and the dioximes. By a specific use of the thermodynamic instability of suitable solvates, preferably the solvate of methyl-tert-butyl ether (MTBE) in a solvent environment that is suitable for this purpose, complete dissolution of the solvate lattice is possible far above the solubility limit and even close to room temperature. […] A so-called cold melting is carried out. This state can be kept stable by adding suitable solvents as recrystallization inhibitors for technical applications. The supersaturation state can be stabilized for hours in toluene solution by adding only 5% by volume of methanol. Then, by adding solvating agent-solvent (MTBE) at suitable concentration (e.g., 100-130% by volume of MTBE, relative to the toluene that is used), the solvate lattice is built up again, whereby the contaminants remain in solution for the most part.

progesterone receptor = biological target: T1, progesterone receptor (Homo sapiens, UniProt P06401); conditions: according to EP-A-0 648 778 or DE-A-43 32 283; cited from earlier work
T1 sequence (P06401 1-933): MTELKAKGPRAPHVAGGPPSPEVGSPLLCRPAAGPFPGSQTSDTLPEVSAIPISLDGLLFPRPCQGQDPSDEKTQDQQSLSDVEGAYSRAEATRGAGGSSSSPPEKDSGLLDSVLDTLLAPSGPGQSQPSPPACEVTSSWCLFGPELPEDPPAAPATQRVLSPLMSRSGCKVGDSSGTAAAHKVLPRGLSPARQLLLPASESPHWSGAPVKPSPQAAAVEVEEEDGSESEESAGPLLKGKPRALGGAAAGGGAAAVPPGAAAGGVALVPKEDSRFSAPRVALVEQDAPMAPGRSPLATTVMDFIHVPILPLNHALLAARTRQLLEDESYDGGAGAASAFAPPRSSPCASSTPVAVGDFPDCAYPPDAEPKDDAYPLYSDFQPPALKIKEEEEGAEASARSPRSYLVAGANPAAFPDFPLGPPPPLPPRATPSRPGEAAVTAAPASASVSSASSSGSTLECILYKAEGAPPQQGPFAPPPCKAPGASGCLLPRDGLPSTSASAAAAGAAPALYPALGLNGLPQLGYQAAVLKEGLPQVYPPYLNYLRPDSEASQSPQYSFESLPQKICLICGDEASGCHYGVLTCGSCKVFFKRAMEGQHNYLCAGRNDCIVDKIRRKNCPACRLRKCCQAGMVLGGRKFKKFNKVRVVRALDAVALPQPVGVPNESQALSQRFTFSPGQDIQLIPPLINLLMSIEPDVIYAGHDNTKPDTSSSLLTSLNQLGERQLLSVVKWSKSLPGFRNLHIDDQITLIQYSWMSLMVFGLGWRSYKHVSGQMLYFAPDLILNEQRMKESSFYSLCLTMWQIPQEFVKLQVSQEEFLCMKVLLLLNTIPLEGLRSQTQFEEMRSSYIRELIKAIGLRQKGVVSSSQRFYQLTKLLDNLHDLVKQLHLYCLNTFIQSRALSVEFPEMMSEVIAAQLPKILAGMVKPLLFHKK

[1] = tested on: antiglucocorticoidal activity; conditions: according to EP-A-0 648 778 or DE-A-43 32 283; cited from earlier work
[2] = Solubility studies (saturation solubility in water without and with 0.25% SDS); assay type: physicochemical
Procedure: 200 mg of substance was added at 25° C. into 50 ml of water (without and with 0.25% SDS (sodium lauryl sulfate)). Samples were taken after 0.5 hour, 2 hours, 5 hours and 24 hours.
Sampling: 0.45 μm filter attachment, dilution 1:1 with MeOH, HPLC.

[3] = Shelf life / accelerated ICH-stability test; assay type: physicochemical
Procedure: In FIG. 5, an x-ray-powder diffractogram of amorphous 11β-[4E-(hydroxyiminomethyl)phenyl]-17α-methoxymethyl-17β-methoxy-estra-4,9-dien-3-one is depicted at time 0 (start), after 12 months at 25° C. and after 12 months at 40° C.
(§1) By the stability, negative influences of such conversions on the bio-availability of the active ingredient are avoided.

[4] = Stability of the physical structure during pharmaceutical processing (wet granulation, pelletizing); assay type: physicochemical
From the text: as §1

For `COC[C@]1(OC)CC[C@H]2[C@@H]3CCC4=CC(=O)CCC4=C3[C@@H](c3ccc(/C=N/O)cc3)C[C@@]21C` [MTBE solvate, 11β-[4E-(hydroxyiminomethyl)phenyl]-17α-methoxymethyl-17β-methoxy-estra-4,9-dien-3-one], the solubility in toluene (Solubility in toluene) was 3.3 % by weight.

For `COC[C@]1(OC)CC[C@H]2[C@@H]3CCC4=CC(=O)CCC4=C3[C@@H](c3ccc(/C=N/O)cc3)C[C@@]21C` [Oxime J867, 11β-[4E-(hydroxyiminomethyl)phenyl]-17α-methoxymethyl-17β-methoxy-estra-4,9-dien-3-one], the “activity on the progesterone receptor compared with RU 486 (mifepristone)” value (progesterone receptor) is given as “same activity as RU 486 (mifepristone)” and the “antiglucocorticoidal activity compared with RU 486” value [1] is given as “significantly reduced”.

In the case of `COC[C@]1(OC)CC[C@H]2[C@@H]3CCC4=CC(=O)CCC4=C3[C@@H](c3ccc(/C=N/O)cc3)C[C@@]21C` [amorphous form of oxime J867, 11β-[4E-(hydroxyiminomethyl)phenyl]-17α-methoxymethyl-17β-methoxy-estra-4,9-dien-3-one], the “time for which the high supersaturation level remains stable” value ([2]; in surfactant solution (sodium lauryl sulfate)) is reported as “stable for several hours”, the “time for which the high supersaturation level remains stable” value ([2]; in water) is reported as “over 24 hours” and the “signs of recrystallization and/or chemical decomposition of the amorphous structure” value ([3]; after 12 months, 40° C., 75% relative humidity) is reported as “does not show any signs of a recrystallization and/or chemical decomposition”. For the same compound, the “physical structure during pharmaceutical processing (conversion amorphous to highly crystalline, E/Z isomerization)” value [4] was “remains stable”.

For `COC[C@]1(OC)CC[C@H]2[C@@H]3CCC4=CC(=O)CCC4=C3[C@@H](c3ccc(/C=N/O)cc3)C[C@@]21C` [highly crystalline form of oxime J 867, 11β-[4E-(hydroxyiminomethyl)phenyl]-17α-methoxymethyl-17β-methoxy-estra-4,9-dien-3-one ansolvate], the “chemical stability compared with the amorphous form” value ([3]; especially under stress (high temperatures and humidities)) was “higher than that of the amorphous form”.
